Test [1] deals with secreted Aβ40 peptide. As to the kind of experiment: Secreted β-amyloid 40 (Aβ40) peptide assay in APP overexpressing SH-SY5Y-APP cells. The test is classed as cell-based. The following applies: Homo sapiens, overnight (16-18 hours), supernatant.
Procedure: SH-SY5Y cells were infected with lentivirus to overexpress amyloid (A4) beta precursor protein (APP), hereafter referred to as the SH-SY5Y-APP cells.
SH-SY5Y cells were seeded onto 6-well plates at 5.0×10
[formula] and incubated overnight at 37° C.
Polybrene added for permeability (H9268, Sigma). 24 hours post-transfection, the entire volume from each well was replaced with regular SH-SY5Y medium.
Puromycin-resistant cell were then expanded, harvested and banked. APP-overexpression was controlled by immunoblotting for total APP and Myc-DDK.
The cell assay procedure start 18 h prior to treatment, as SH-SY5Y-APP cells were seeded onto 96-well plates at 2.0×10^4
At this time, designated wells were seeded with SH-SY5Y cells that were seeded and treated with puromycin at 10
Cells were exposed overnight (16-18 hours) in a 37° C. incubator before supernatant was harvested. […] The original plates with seeded cells were tested for cytotoxicity by measure of adenosine triphosphate (ATP) release by adding CellTiter-Glo® diluted 1:4 in distilled water (G7573, Promega) and transferring lysed cells to a completely black 96-well plate to be read with the Cytation3. Plates containing supernatant were spun down at 1200 g for 10 minutes to remove any cellular debris. […]
Test [2] has as its system IL-6. As to the kind of experiment: IL-6 inhibition (HTRF) in LPS-stimulated human peripheral blood mononuclear cells. The test is classed as cell-based. The following applies: IL-6 in LPS-stimulated huPBMCs; for value in parentheses after >10 (% inhibition at top concentration): where EC50 >10 μM; for pEC50: 22 hours, dose-response starting from 10 μM. Background: In TR-FRET formats the signal depends on donor and acceptor labels being close together.
Procedure: After 22 hour incubation, a mixture of ani-IL6XL665 and anti-IL-6 Cryptate diluted in reconstitution buffer (Catalog #62IL6PEC, Cisbio Inc., Bedford, Mass.) was added to each well. […] All samples were processed in duplicate. […] EC50 was determined using software generated by Dotmatics Limited (Windhill Bishops Stortford Herts, UK) using the Levenberg-Marquardt 4 parameter fitting procedure with finite different gradients.

The test system of test [3] is primary human fibroblasts derived from IPF patients (LL29 cells). As to the kind of experiment: Fibrosis assay: αSMA staining in TGF-β1 treated LL29 fibroblasts. The test is classed as cell-based. As to conditions: for pEC50: LL29 fibroblasts treated with TGF-β1, 4 days, αSMA, dose-response 10 μM to […].
For test [4], the target named is GSK3β kinase (Homo sapiens (Human), UniProt P49841). As to the kind of experiment: GSK3β kinase activity assay (Ser/Thr 09 peptide Z-lyte, FRET). The test is classed as biochemical. As to conditions: method calls the values IC50.
In test [5] the test system is SW480 colon carcinoma cells. As to the kind of experiment: Cell viability assay (CellTiter-Glo) in SW480 cells. The test is classed as cell-based, human. As to conditions: four days incubation. In general terms: ATP-based viability assays read luminescence as a measure of living cells.
Test [6] deals with Wnt activity. As to the kind of experiment: Screening assay for Wnt activity (Sp5-Luc reporter gene assay in SW480 cells). As to conditions: 36 to 48 hours. The test is classed as cell-based, human. (In general: Reporter assays use an easily measured gene product as a stand-in for the process of interest.)
Procedure: The screening assay for Wnt activity is described as follows.
Following incubation, 15 μl of BriteLite Plus luminescence reagent (Perkin Elmer) was added to each well of the 384-well assay plates. The plates were placed on an orbital shaker for 2 min and then luminescence was quantified using the Envision (Perkin Elmer) plate reader.
Test [7] addresses DYRK1A kinase (Homo sapiens (Human), UniProt Q13627). The test can be described thus: DYRK1A kinase activity assay (Ser/Thr 18 peptide Z-lyte, FRET). The following applies: method calls the values IC50. The test is classed as biochemical.
In test [8] the test system is Tau phosphorylation at Ser396 (pSer396). The test can be described thus: Tau phosphorylation assay (pSer396 ELISA / western blot) in SH-SY5Y cells. The test is classed as cell-based, human. As to conditions: overnight (16-18 h) exposure.
Procedure: Two days before treatment, cells were seeded onto 96 well plates at 5×10^4 cells/well.
Wells were visually checked for cell death or change in morphology and supernatants were tested for cytotoxicity by measurement of lactate dehydrogenase release (LDH, CytoToxOne kit, Promega) if necessary.
Cells were lysed with RIPA buffer complemented with phosphatase and protease inhibitors then lysates were spun down at 12,000 g for 10 min to remove any cellular debris. Lysates are then either directly tested for pSer396 by ELISA (Life Technology, Kit KHB7031) or loaded on NuPage Bis-Tris gels for western blot analysis. Colorimetric detection of ELISA signal is performed by Cytation3 plate reader (Biotek) and the chemiluminescence signal for HRP-linked antibodies used in western blotting is detected using a Carestream Image Station. The same pSer396 antibody is used for detection of pTau in both assays.

pEC50, pIC50: −log10 of the molar value.

Sequence of GSK3β kinase (P49841 whole entry): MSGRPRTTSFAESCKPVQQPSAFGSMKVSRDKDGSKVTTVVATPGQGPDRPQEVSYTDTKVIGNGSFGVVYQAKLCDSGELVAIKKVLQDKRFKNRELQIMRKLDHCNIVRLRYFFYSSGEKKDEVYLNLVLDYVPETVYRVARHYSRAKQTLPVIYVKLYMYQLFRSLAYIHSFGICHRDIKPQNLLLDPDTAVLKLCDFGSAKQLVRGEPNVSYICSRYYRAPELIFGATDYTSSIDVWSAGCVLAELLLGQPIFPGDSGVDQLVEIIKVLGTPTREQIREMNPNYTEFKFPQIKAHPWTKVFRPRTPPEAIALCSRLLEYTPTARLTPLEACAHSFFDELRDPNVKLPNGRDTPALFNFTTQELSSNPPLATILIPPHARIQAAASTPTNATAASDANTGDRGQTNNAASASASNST

`Cn1cncc1-c1ccc2cnc(NC(=O)C3C(C)(C)C3(C)C)cc2c1` [Compound 269, 2,2,3,3-Tetramethyl-N-[6-(3-methylimidazol-4-yl)-3-isoquinolyl]cyclopropanecarboxamide]: the pIC50 (usually the negative decadic logarithm of the IC50, by convention in mol/L) in test [1] is below 5.00.
Regarding `Cn1cc(-c2ccc3cnc(NC(=O)C4C(C)(C)C4(C)C)cc3c2)nn1` [Compound 277, 2,2,3,3-Tetramethyl-N-(6-(1-methyl-1H-1,2,3-triazol-4-yl)isoquinolin-3-yl) cyclopropane-1-carboxamide], the “value in parentheses after >10 (% inhibition at top concentration)” value (shortened to “value … (% inhibition at top concentration)”) in test [2] turned out to be 4.0%.
`Cn1cc(-c2ccc3cnc(NC(=O)CN4C5CCC4COC5)cc3c2)cn1` [Compound 347, 2-(3-Oxa-8-azabicyclo[3.2.1]octan-8-yl)-N-(6-(1-methyl-1H-pyrazol-4-yl)isoquinolin-3-yl)acetamide]: the “value … (% inhibition at top concentration)” value in test [2] came to 4.5%.
As to `Cn1cc(-c2ccc3cnc(NC(=O)CN4C5CCC4CC5)cc3c2)nn1` [Compound 513, 2-(7-Azabicyclo[2.2.1]heptan-7-yl)-N-(6-(1-methyl-1H-1,2,3-triazol-4-yl)isoquinolin-3-yl)acetamide], the “value … (% inhibition at top concentration)” value in test [2] is given as 14.5%.
As for `Cc1nnc(-c2ccc3cnc(NC(=O)CN4C5CCC4CC5)cc3c2)s1` [Compound 959, 2-(7-Azabicyclo[2.2.1]heptan-7-yl)-N-(6-(5-methyl-1,3,4-thiadiazol-2-yl)isoquinolin-3-yl)acetamide], the “value … (% inhibition at top concentration)” value in test [2] is 6.1%.
On to `Cc1nnc(-c2ccc3cnc(NC(=O)CN4C5CCC4COC5)cc3c2)s1` [Compound 962, 2-(3-Oxa-8-azabicyclo[3.2.1]octan-8-yl)-N-(6-(5-methyl-1,3,4-thiadiazol-2-yl)isoquinolin-3-yl)acetamide], for which the “value … (% inhibition at top concentration)” value in test [2] was 9.6%.
On to `CC(C)CN1CCC[C@@H](C(=O)Nc2cc3cc(-c4cnn5c4CN(CCF)CC5)ccc3cn2)C1` [Compound 1002, (R)—N-(6-(5-(2-Fluoroethyl)-4,5,6,7-tetrahydropyrazolo[1,5-a]pyrazin-3-yl)isoquinolin-3-yl)-1-isobutylpiperidine-3-carboxamide], for which the “value … (% inhibition at top concentration)” value in test [3] (LL29 fibroblasts treated with TGF-β1, where EC50 >10 μM) is listed as 27.5%.
For `Cn1cc(-c2ccc3cnc(NC(=O)C45CCN(CC4)CC5)cc3c2)cn1` [Compound 1071, N-(6-(1-Methyl-1H-pyrazol-4-yl)isoquinolin-3-yl)quinuclidine-4-carboxamide], the “value … (% inhibition at top concentration)” value in test [2] is listed as 8.8%.
As to “N-(6-(1-Methyl-1H-pyrazol-4-yl)isoquinolin-3-yl)-2-(6-azaspiro[2.5]octan-6-yl)acetamide [Compound 296]”, the pEC50 (in general, the EC50 on a negative log10 scale, so that one unit is a factor of ten) in test [4] is 7.10; in test [5], 5.46; in test [6], 5.46; in test [7] it was 7.84; in test [3], 5.71; in test [2], 5.80. For the same compound, in test [8], the negative-log EC50 (pEC50) was 6.01.
Consider “N-(6-(1-Methyl-1H-pyrazol-4-yl)isoquinolin-3-yl)-2-(pyrrolidin-1-yl-2,2,5,5-d4)acetamide [Compound 315]”, for which the pEC50 was 7.36 in test [4]; 5.90 in test [5]; 5.80 in test [6]; 7.91 in test [7]; 5.74 in test [3]; 6.09 in test [2]. Also, the pEC50 in test [8] is 6.46.
